Key:
[1] = biological target: T1, human CXCR3 (isoform 1) (Homo sapiens, UniProt P49682); assay: [125I]CXCL11 radioligand displacement assay; type: binding
T1 construct: expressed in transfected cells; host or cells: COS-7 cells, transient (pcDNA3.1+ vector, calcium phosphate)
T1 sequence (P49682 1-368): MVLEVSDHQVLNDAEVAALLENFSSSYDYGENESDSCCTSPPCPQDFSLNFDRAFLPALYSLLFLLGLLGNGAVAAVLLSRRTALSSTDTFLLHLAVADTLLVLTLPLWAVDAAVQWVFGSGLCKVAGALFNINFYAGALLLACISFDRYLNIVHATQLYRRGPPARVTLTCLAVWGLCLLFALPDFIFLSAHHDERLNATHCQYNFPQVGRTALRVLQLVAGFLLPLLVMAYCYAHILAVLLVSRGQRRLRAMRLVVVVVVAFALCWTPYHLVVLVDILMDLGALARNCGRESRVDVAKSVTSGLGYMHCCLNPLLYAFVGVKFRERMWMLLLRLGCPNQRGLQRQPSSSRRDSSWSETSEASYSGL
Description: [^125I]CXCL11 radioligand displacement assay: Oxidative iodination. The CXCL11 protein (purchased from PeproTech as the mature form of isoform 1) was labeled in-house with the ^125I isotope (purchased from Perkin-Elmer, in 10 µM NaOH, pH 8-11) using the Chloramine-T method^36. CXCL11 was dissolved in 300 mM phosphate buffer, and 0.4 mCi ^125I was added to 0.6 nmol (10 µl) of the protein. 30 µl phosphate buffer supplemented with 30 mgl^-1 Chloramine-T was added slowly over a 5 min period while stirring, and the reaction was quenched by adding 400 µl H2O with 0.1% trifluoroacetic acid (TFA). The product was purified by reverse-phase HPLC, using a C18 column and a gradient from H2O with 0.1% TFA (buffer A) to acetonitrile with 0.1% TFA (buffer B). After allowing the passage of 8 mL flow-through at 20 % buffer B, CXCL11 is eluted by increasing buffer B to 50 % over a flow-volume of 40 mL, after which any possible remains of protein are eluted by further increasing buffer B to 80 % across 10 mL flow-through. The flow-through is collected in 1 mL aliquots, and the radioligand is identified in those aliquots by gamma radiation intensity, and verified with a preliminary competitive binding assay setup.
Cell culture and transfection,. Cos-7 cells expressing human CXCR3 (isoform 1) were used for binding assays. […]

[2] = biological target: T2, CXCR3-PK2 (Homo sapiens, UniProt P49682); assay: β-arrestin 2 recruitment assay (PathHunter, DiscoveRx), CXCR3-PK2 construct; type: cell-based; conditions: CXCR3-PK2; for CXCR3-PK2 pEC50 ± SEM: HEK293-T cells, PathHunter
T2 construct: expressed in transfected cells
T2 sequence (P49682 1-368): T1 sequence (P49682 1-368)
Description: (§1) β-arrestin 2 recruitment assay: The measurement of β-arrestin recruitment was performed utilizing the PathHunter assay purchased from DiscoveRx (DiscoveRx, Birmingham, U.K.) according to the manufacturer's protocol. HEK293 cells stably expressing β-gal enzyme acceptor were transiently transfected with the ProLink (PK1) tagged wildtype CXCR3 receptor using the TransIT-293 transfection reagent from Mirus (purchased from MoBiTec, Goettingen, Germany). The assay was carried out in 384-well plates containing 2000 cells in 20 µL. After incubation at 37°C (5% CO2, 95% relative humidity) overnight, various concentrations of test compounds or CXCL11 (prepared in PBS, pH 7.4, containing 0.20% BSA) were added and the incubation continued for 4 h. Detection mix was then added and incubated for further 60 min at room temperature. Chemiluminescence was determined with a microplate reader Clariostar (BMG labtech, Ortenberg, Germany).
The ability of the novel ligands according to the present invention to induce CXCR3-mediated β-arrestin 2 recruitment was investigated in the assay system PathHunter (DiscoveRx), which detects the recruitment of β-amestin 2 to the activated receptor using β-galactosidase (β-gal) enzyme fragment complementation. The inventors used two different ProLink tags, ProLink1 (PK1) and ProLink2 (PK2), of which PK2 has higher affinity for the enzyme acceptor to detect weak protein-protein interactions. The CXCR3-PK2 construct is readily able to detect the differences in the propensity of CXCL11 and CXCL10 to induce β-arrestin 2 recruitment at CXCR3. […] Table 3. Ability of the 46/VUF10661 based positive allosteric modulators to activate the CXCR3 as measured in the β-arrestin 2 recruitment assay (PathHunter, DiscoveRx).[a]
To investigate the efficacy of identified partial agonists in the assay format, the inventors used the CXCR3-PK2 construct, which is characterized by higher sensitivity to detect β-arrestin 2 recruitment. The compounds which appeared as weak partial agonists under CXCR3-PK1 conditions appeared as strong partial agonists under CXCR3-PK2 conditions with the efficacy increased up to 80% (Table 4). FAUC1036 reached the efficacy of 66%. […] Table 4. Ability of the compound 5 based positive allosteric modulators to activate the CXCR3 as measured in the β-arrestin 2 recruitment assay (PathHunter, DiscoveRx).[a]

[3] = biological target: T3, CXCR3 (Homo sapiens, UniProt P49682); assay: β-arrestin 2 recruitment with concomitant incubation of FAUC1036 and chemokine; type: cell-based
T3 construct: expressed in transfected cells; host or cells: HEK293 / HEK293T cells, stably transfected; membrane preparations
T3 sequence (P49682 1-368): T1 sequence (P49682 1-368)
Description: as §1
The effect of the β-arrestin 2 biased allosteric agonist FAUC1036 on the CXCL11 and CXCL10-induced β-arrestin 2 recruitment was estimated in a series of experiments where the HEK293T cells expressing CXCR3 were concomitantly incubated with FAUC1036 and chemokines CXCL11 or CXCL10 (Figure 3). […] These observations imply that FAUC1036 behaves as a functional negative allosteric modulator (NAM) in the presence of endogenous agonists in the β-arrestin 2 pathway.

CXCR3-PK2 efficacy (%) ([2]; % of CXCL11 mediated effect, listed as 11/FAUC103 6): 66±8% | Emax ([2]; % of CXCL11 mediated effect, read-out: CXCR3-PK2 efficacy (%) (converted)): 66% | CXCR3-PK2 pEC50 ± SEM ([2]; listed as 11/FAUC103 6): 6.58±0.30 | CXCR3-PK2 pEC50 ± SEM ([2]; listed as FAUC1036): 6.64 ± 0.30 | influence on the efficacy of CXCL10-induced β-arrestin 2 recruitment ([3]; in the presence of CXCL10 (Figure 3B)): noticeable effect on the efficacy | influence on the efficacy of CXCL11-induced β-arrestin 2 recruitment ([3]; in the presence of CXCL11 (Figure 3A)): had not influence on the efficacy
SMILES: CC(C)(C)OC(=O)N[C@@H](CCCCNC(=O)[C@@H]1Cc2ccccc2CN1C(=O)CCC(=O)c1ccccc1)C(=O)NCC(c1ccccc1)c1ccccc1 [Compound 11, Tert-butyl ((S)-1-((2,2-diphenylethyl)amino)-1-oxo-6-((S)-2-(4-oxo-4-phenylbutanoyl)-1,2,3,4-tertahydroisoquinoline-3-carboxamido)hexan-2-yl)carbamate]
effect on the binding affinity of CXCL11 on CXCR3 [1]: no effect on the binding affinity of CXCL11 on CXCR3

— patent EP3156398A1, “AGONISTS OF THE CHEMOKINE RECEPTOR CXCR3” (Friedrich-Alexander-Universität Erlangen-Nürnberg, priority 2015, dated 2017)
